The assay relates to durch Pentagastrin stimulierte Säuresekretion des perfundierten Rattenmagens. The assay is described as follows: Inhibition of pentagastrin-stimulated acid secretion in the perfused rat stomach in vivo. Also noted: species or system Ratte. The source says:
Prüfung der sekretionshemmenden Wirkung am perfundierten Rattenmagen
In der folgenden Tabelle 2 ist der Einfluß der erfindungsgemäßen Verbindungen nach intravenöser Gabe auf die durch Pentagastrin stimulierte Säuresekretion des perfundierten Rattenmagens in vivo dargestellt.
Narkotisierten Ratten (CD-Ratte, weiblich, 200-250 g; 1,5 g/kg i.m. Urethan) wurde nach Tracheotomie das Abdomen durch einen medianen Oberbauchschnitt er-öffnet und ein PVC-Katheter transoral im Ösophagus sowie ein weiterer via Pylorus derart fixiert, daß die Schlauchenden eben noch in das Magenlumen hineinragten. Der aus dem Pylorus führende Katheter führte über eine seitliche Öffnung in der rechten Bauchwand nach außen.
Nach gründlicher Spülung (ca.50-100 ml) wurde der Magen mit 37 °C warmer physiologischer NaCl-Lösung kontinuierlich durchströmt (0,5 ml/min, pH 6,8-6,9; Braun-Unita I). In dem jeweils im 15 min-Abstand aufgefangenen (25 ml Meßzylinder) Effluat wurde der pH-Wert (pH-Meter 632, Glaselektrode EA 147; ⌀ = 5 mm, Metrohm) sowie durch Titration mit einer frisch zubereiteten 0,01 N NaOH bis pH 7 (Dosimat 655 Metrohm) die sezernierte HCl bestimmt.
Die Stimulation der Magensekretion erfolgte durch Dauerinfusion von 1µg/kg (=1,65 ml/h) i.v. Pentagastrin (V. fem. sin.) ca 30 min nach Operationsende (d.h. nach Bestimmung von 2 Vorfraktionen). […]

Here are results for two compounds from EP0368158A1, “Imidazo pyridines” (Byk Gulden Lomberg Chemische Fabrik GmbH, priority 1988, dated 1990).

Turning to `COc1ccc(C(=O)O[C@@H]2Cc3ccccc3[C@H]2Oc2cccn3c(CO)c(C)nc23)cc1` (relative stereo) [Beispiel 2, 3-Hydroxymethyl-8-[trans-2-(4-methoxybenzoyloxy)-2,3-dihydro-1-indenyloxy]-2-methyl-imidazo[1,2-a]pyridin], where the note is “Rattus norvegicus, iv; i.v.; interpolated dose that causes a maximal inhibition of HCl secretion by 50 %; head says 'ca.'; read-out: Maximale Hemmung der Säureausscheidung ca. ED50 +) (µmol/kg) i.v.”, the ED50 was about 1.1 µmol/kg.

Regarding `COCC(=O)O[C@@H]1Cc2cc(F)ccc2[C@H]1Oc1cccn2c(CO)c(C)nc12` (relative stereo) [Beispiel 5, 8-(5-Fluor-trans-2-methoxyacetoxy-2,3-dihydro-1-indenyloxy)-3-hydroxymethyl-2-methyl-imidazo[1,2-a]pyridin], the “Maximale Hemmung der Säureausscheidung ca. ED50 +) (µmol/kg) i.v.” value (i.v., interpolated dose that causes a maximal inhibition of HCl secretion by 50 %, head says 'ca.') is ~0,8 µmol/kg.
